# Test results published in US5032597A, “Method of using phenylquinolinecarboxylic acids and derivatives for lymthoid leukemia treatment in a mammal” (priority 1987, dated 1991).
# Read-outs that look alike come from different tables or passages of the source.
# System: L1210 leukemia
# Experiment: Lymphoid Leukemia L1210, survival of tumored mice
# Assay type: in vivo, CD2F1 mice
# Conditions: for response vs control in vivo at 37.5 mg/kg: 37.5 mg/kg i.p.; for response vs control in vivo at 50 mg/kg: 50 mg/kg i.p.; for response vs control in vivo at 12.5 mg/kg: 12.5 mg/kg i.p.
# Experimental: The efficacy of the compounds of this invention against the transplanted mouse tumors was evaluated in test systems currently in use at the National Cancer Institute for the detection and assessment of anticancer activity. […] J. Cancer, 17, 129-142, (1981); Venditti, J. M., Seminars in Oncology, 8 (4) (1981); Goldin, A. and J. M. Venditti, in Recent Results in Cancer Research, 70, S. K. Carter and Y. Sakurai, Eds., Springer-Verlag, Berlin/Heidelberg, 1980].
# The animals used in this test were CD2 F1 mice, all males weighing a minimum of 18 g and all within a 4 g weight range at the start of the test. The test group consisted of six mice. The tumor was implanted in each of the test mice by the intraperitoneal injection of 0.1 ml of diluted ascitic fluid containing 10^5 cells drawn from a mouse with L1210 leukemia. The test compounds were suspended in hydroxypropylcellulose or saline with Tween® 80 surfactant or dissolved in saline and injected intraperitoneally, at various doses, once daily for nine consecutive days starting on day one relative to the day of tumor inoculation (day 0). The control mice received injections of saline or hydroxypropylcellulose vehicle only. The mice were weighed and survivors were recorded on a regular basis for 30 days. The median survival time and the ratio of the median survival time for the treated (T) and control (C) mice was calculated. […] Drug effectiveness was assessed on the basis of the survival time. Results were expressed as a percentage of the control survival time (Median Survival Time: T/C ×100%). The criterion for effectiveness was determined by: T/C×100≥125 percent.
# [1] = Mus musculus, L1210, ip, 720 h, nonoptimal Q1DX9 instead of Q3DX9, read-out: L1210 Leukemia % T/C (median survival time)
# [2] = Mus musculus, L1210, ip, 720 h, 25 mg/kg i.p., read-out: L1210 Leukemia % T/C (median survival time)
# [3] = Mus musculus, L1210, ip, 720 h, 100 mg/kg i.p., read-out: L1210 Leukemia % T/C (median survival time)
# [4] = Mus musculus, L1210, ip, 720 h, read-out: L1210 Leukemia % T/C (median survival time)
# [5] = Mus musculus, L1210, ip, 720 h, 150 mg/kg i.p., read-out: L1210 Leukemia % T/C (median survival time)
smiles,measurement,setting,value
Cc1c(-c2ccc(-c3ccc(F)cc3)cc2)nc2cc(Cl)c(F)cc2c1C(=O)O [Example 144],response vs control in vivo at 37.5 mg/kg,[1],123%
Cc1c(-c2ccc(-c3ccccc3)cc2)nc2ccc(I)cc2c1C(=O)O [Example 71],response vs control in vivo at 25 mg/kg,[2],163%
"Cc1c(-c2ccc(-c3ccccc3)cc2)nc2ccc(F)c(Cl)c2c1C(=O)O [Example 164, Sodium 2-(4-Biphenylyl)-5-chloro-6-fluoro-3-methylquinoline-4-carboxylate]",response vs control in vivo at 22.5 mg/kg,"Mus musculus, L1210, ip, 720 h, read-out: L1210 Leukemia % T/C (median survival time), 22.5 mg/kg i.p.",234%
Cc1c(-c2ccc(Oc3ccc([N+](=O)[O-])cc3)cc2)nc2ccc(F)cc2c1C(=O)O [Example 184],L1210 Leukemia % T/C (median survival time),175 mg/kg i.p.,153%
Cc1c(-c2ccc(Oc3ccc(F)cc3)cc2)nc2ccc(F)cc2c1C(=O)O [Example 35],L1210 Leukemia % T/C (median survival time),150 mg/kg i.p.,204%
Cc1c(-c2ccc(SCc3ccccc3)cc2)nc2ccc(F)cc2c1C(=O)O [Example 116],response vs control in vivo at 75 mg/kg,"Mus musculus, L1210, ip, 720 h, 75 mg/kg i.p., nonoptimal Q1DX9 instead of Q3DX9, read-out: L1210 Leukemia % T/C (median survival time)",102%
Cc1ccc(-c2ccc(-c3nc4ccc(F)c(Cl)c4c(C(=O)O)c3C)cc2)cc1 [Example 85],L1210 Leukemia % T/C (median survival time),100 mg/kg i.p.,184%
Cc1c(-c2ccc(Sc3ccccc3)cc2)nc2ccc(Cl)cc2c1C(=O)O [Example 21],response vs control in vivo at 200 mg/kg,"Mus musculus, L1210, ip, 720 h, 200 mg/kg i.p., read-out: L1210 Leukemia % T/C (median survival time)",160%
Cc1c(-c2ccc(-c3ccc(Br)cc3)cc2)nc2ccc(Cl)cc2c1C(=O)O [Example 117],response vs control in vivo at 25 mg/kg,[2],163%
Cc1c(-c2ccc(C3CCCCC3)cc2)nc2ccc(Br)cc2c1C(=O)O [Example 135],L1210 Leukemia % T/C (median survival time),400 mg/kg i.p.,160%
Cc1cc(-c2ccccc2)ccc1-c1nc2ccc(F)cc2c(C(=O)O)c1C [Example 68],response vs control in vivo at 100 mg/kg,[3],162%
Cc1c(-c2ccc(-c3ccccc3F)cc2)nc2ccc(Cl)cc2c1C(=O)O [Example 160],response vs control in vivo at 25 mg/kg,[2],174%
Cc1c(-c2ccc(-c3cccc(F)c3)cc2)nc2ccccc2c1C(=O)O [Example 190],response vs control in vivo at 50 mg/kg,[4],195%
Cc1ccc(-c2ccc(-c3nc4ccc(F)cc4c(C(=O)O)c3C)cc2)cc1C [Example 129],response vs control in vivo at 100 mg/kg,[3],154%
Cc1c(-c2ccc(-c3ccc(F)cc3F)cc2)nc2ccc(F)cc2c1C(=O)O [Example 74],response vs control in vivo at 50 mg/kg,[4],104%
O=C(O)c1cc(-c2ccc(-c3ccccc3)cc2)nc2ccc(F)cc12 [Example 123],response vs control in vivo at 21.9 mg/kg,"Mus musculus, L1210, ip, 720 h, 21.9 mg/kg i.p., read-out: L1210 Leukemia % T/C (median survival time)",145%
Cc1c(-c2ccc(-c3ccccc3)cc2)nc2cc(Cl)c(F)cc2c1C(=O)O [Example 151],L1210 Leukemia % T/C (median survival time),75 mg/kg i.p.,144%
CCC(C)c1ccc(-c2nc3ccc(F)cc3c(C(=O)O)c2C)cc1 (centres unmarked) [Example 99],response vs control in vivo at 50 mg/kg,[1],101%
Cc1c(-c2ccc(-c3ccccc3)cc2)nc2cc(Cl)cc(Cl)c2c1C(=O)O [Example 165],response vs control in vivo at 50 mg/kg,[4],128%
O=C(O)c1cc(-c2ccc(-c3ccccc3)cc2)nc2ccc(F)cc12 [Example 182],response vs control in vivo at 46 mg/kg,"Mus musculus, L1210, ip, 720 h, 46 mg/kg i.p., read-out: L1210 Leukemia % T/C (median survival time)",168%
Cc1c(-c2ccc(-c3ccc(F)cc3)cc2)nc2ccc(Cl)cc2c1C(=O)O [Example 23],response vs control in vivo at 25 mg/kg,[2],159%
Cc1c(-c2ccc(Oc3ccccc3)cc2)nc2ccc(Cl)cc2c1C(=O)O [Example 172],response vs control in vivo at 100 mg/kg,[3],151%
Cc1cc(-c2ccccc2)ccc1-c1nc2ccc(F)cc2c(C(=O)O)c1C [Example 158],L1210 Leukemia % T/C (median survival time),100 mg/kg i.p.,148%
Cc1ccc2nc(-c3ccc(-c4ccccc4)cc3)c(C)c(C(=O)O)c2c1Cl [Example 166],response vs control in vivo at 50 mg/kg,[4],156%
Cc1c(-c2ccc(-c3ccc(F)cc3)cc2)nc2ccc(Cl)cc2c1C(=O)O [Example 113],L1210 Leukemia % T/C (median survival time),25 mg/kg i.p.,166%
Cc1c(-c2ccc(-c3ccc(Br)cc3)cc2)nc2ccc(Cl)cc2c1C(=O)O [Example 27],response vs control in vivo at 50 mg/kg,[4],155%
Cc1c(-c2ccc(-c3ccc(Br)cc3)cc2)nc2ccc(Cl)cc2c1C(=O)O [Example 175],response vs control in vivo at 12.5 mg/kg,[4],156%
Cc1c(-c2ccc(-c3ccccc3)cc2)nc2cccc(Cl)c2c1C(=O)O [Example 163],response vs control in vivo at 43.8 mg/kg,"Mus musculus, L1210, ip, 720 h, 43.8 mg/kg i.p., read-out: L1210 Leukemia % T/C (median survival time)",180%
Cc1c(-c2ccc(-c3ccc(Cl)c(Cl)c3)cc2)nc2ccc(F)cc2c1C(=O)O [Example 36],response vs control in vivo at 75 mg/kg,"Mus musculus, L1210, ip, 720 h, 75 mg/kg i.p., read-out: L1210 Leukemia % T/C (median survival time)",185%
Cc1c(-c2ccc(-c3ccc(Cl)c(Cl)c3)cc2)nc2ccc(F)cc2c1C(=O)O [Example 126],response vs control in vivo at 37.5 mg/kg,[4],150%
Cc1ccc2c(C(=O)O)c(C)c(-c3ccc(-c4ccccc4)cc3)nc2c1 [Example 55],response vs control in vivo at 150 mg/kg,[5],156%
Cc1c(-c2ccc(Cc3ccccc3)cc2)nc2ccc(Cl)cc2c1C(=O)O [Example 22],response vs control in vivo at 100 mg/kg,[3],135%
CCN(CC)CCOC(=O)c1c(C)c(-c2ccc(-c3ccccc3F)cc2)nc2ccc(F)cc12 [Example 202],response vs control in vivo at 59 mg/kg,"Mus musculus, L1210, ip, 720 h, 59 mg/kg i.p., read-out: L1210 Leukemia % T/C (median survival time)",164%
Cc1c(-c2ccc(-c3ccccc3F)cc2)nc2ccc(F)cc2c1C(=O)OCCCN(C)C [Example 200],L1210 Leukemia % T/C (median survival time),25 mg/kg i.p.,140%
Cc1c(-c2ccc(Oc3ccccc3)cc2)nc2ccc(Cl)cc2c1C(=O)O [Example 110],response vs control in vivo at 25 mg/kg,[2],135%
Cc1c(-c2ccc(-c3ccc(Br)cc3)cc2)nc2ccc(F)cc2c1C(=O)O [Example 183],response vs control in vivo at 22.5 mg/kg,"Mus musculus, L1210, ip, 720 h, 22.5 mg/kg i.p., read-out: L1210 Leukemia % T/C (median survival time)",208%
Cc1c(-c2ccc(-c3ccccc3)cc2)nc2ccc(Br)cc2c1C(=O)O [Example 142],response vs control in vivo at 37.5 mg/kg,[4],169%
Cc1c(-c2ccc(-c3ccccc3)cc2)nc2cc(F)ccc2c1C(=O)O [Example 186],response vs control in vivo at 45 mg/kg,"Mus musculus, L1210, ip, 720 h, 45 mg/kg i.p., nonoptimal Q1DX9 instead of Q3DX9, read-out: L1210 Leukemia % T/C (median survival time)",123%
Cc1c(-c2ccc(-c3ccccc3)cc2)nc2ccc(F)cc2c1C(=O)OCCN(C)C [Example 196],response vs control in vivo at 50 mg/kg,[4],205%
O=C(O)c1cc(-c2ccc(Oc3ccc(F)cc3)cc2)nc2ccc(F)cc12 [Example 75],response vs control in vivo at 150 mg/kg,[5],145%
Cc1c(-c2ccc(-c3ccccc3)cc2)nc2c(Br)cc(Br)cc2c1C(=O)O [Example 150],response vs control in vivo at 37.5 mg/kg,[1],105%
Cc1c(-c2ccc(Oc3ccccc3)cc2)nc2ccc(Br)cc2c1C(=O)O [Example 143],response vs control in vivo at 37.5 mg/kg,[4],132%
Cc1ccc(-c2ccc(-c3nc4ccc(F)cc4c(C(=O)O)c3C)cc2)cc1Cl [Example 128],response vs control in vivo at 25 mg/kg,[2],135%
CCc1c(-c2ccc(C3CCCCC3)cc2)nc2ccc(F)cc2c1C(=O)O [Example 100],response vs control in vivo at 50 mg/kg,[1],103%
Cc1c(-c2ccc(Oc3ccccc3)cc2)nc2ccc(C(F)(F)F)cc2c1C(=O)O [Example 147],response vs control in vivo at 18 mg/kg,"Mus musculus, L1210, ip, 720 h, 18 mg/kg i.p., read-out: L1210 Leukemia % T/C (median survival time)",132%
Cc1c(-c2ccc(Oc3ccc(F)cc3)cc2)nc2ccc(F)cc2c1C(=O)O [Example 125],L1210 Leukemia % T/C (median survival time),150 mg/kg i.p.,150%
Cc1c(-c2ccc(-c3ccccc3F)cc2)nc2ccc(F)cc2c1C(=O)OCCCN(C)C [Example 199],response vs control in vivo at 25 mg/kg,[2],153%
Cc1c(-c2ccc(-c3ccccc3F)cc2)nc2ccc(F)c(Cl)c2c1C(=O)O [Example 167],response vs control in vivo at 12.5 mg/kg,[4],197%
COc1c(-c2ccc(-c3ccc(C(F)(F)F)cc3)cc2)nc2ccc(F)cc2c1C(=O)O [Example 32],response vs control in vivo at 175 mg/kg,"Mus musculus, L1210, ip, 720 h, 175 mg/kg i.p., read-out: L1210 Leukemia % T/C (median survival time)",153%
Cc1c(-c2ccc(-c3ccccc3)cc2)nc2ccc(C(F)(F)F)cc2c1C(=O)O [Example 146],response vs control in vivo at 37.5 mg/kg,[4],164%
